Activity calls are given as the source filed them. No cut-off for these calls is given here.
What was measured:
[1] = biological target: Apoptosis regulator Bcl-2 (Homo sapiens, UniProt P10415); test: Displacement of Bak derived peptide from Bcl-2 (unknown origin) measured after 15 mins by microplate reader assay
[2] = biological target: Bcl-2-like protein 1 (Homo sapiens, UniProt Q07817); test: Displacement of Bak derived peptide from Bcl-xL (unknown origin) measured after 15 mins by microplate reader assay
Sequence of Bcl-2-like protein 1 (Q07817 whole entry): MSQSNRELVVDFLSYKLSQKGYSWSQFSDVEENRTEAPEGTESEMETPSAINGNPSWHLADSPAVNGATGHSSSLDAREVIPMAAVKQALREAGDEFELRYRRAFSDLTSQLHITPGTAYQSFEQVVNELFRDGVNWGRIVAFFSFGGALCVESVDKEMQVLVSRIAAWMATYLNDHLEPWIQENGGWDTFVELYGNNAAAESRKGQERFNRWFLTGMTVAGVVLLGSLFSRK

[3] = tested on: RS4-11; test: Antiproliferative activity against human RS4-11 cells assessed as inhibition of cell proliferation measured after 72 hrs by CCK8 assay; type: functional, cell-based; settings: RS4-11, 72 h
[4] = biological target: T1, Caspase-3 (Canis lupus familiaris) (UniProt Q8MKI5); test: Induction of caspase 3 activity in dog platelets assessed as cleavage of Ac-DEVD-Pna at 0.5 to 2.5 uM using Ac-DEVD-pNA as substrate incubated for 90 mins; type: tissue-based; settings: Platelet, dose 0.5-2.5 µM
T1 sequence (whole entry): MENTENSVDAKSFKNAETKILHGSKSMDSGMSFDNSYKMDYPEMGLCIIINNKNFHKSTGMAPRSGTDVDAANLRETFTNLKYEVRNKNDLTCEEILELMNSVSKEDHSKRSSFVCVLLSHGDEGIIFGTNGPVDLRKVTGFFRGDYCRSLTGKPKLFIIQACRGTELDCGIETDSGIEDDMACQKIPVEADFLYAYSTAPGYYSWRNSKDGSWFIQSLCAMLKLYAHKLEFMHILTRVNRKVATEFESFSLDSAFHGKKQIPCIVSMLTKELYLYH

[5] = Toxicity in C57BL/6 mouse plasma assessed as effect on platelet count at 300 mg/kg, ig for 4 hrs; type: organism-based; settings: in vivo, po
[6] = Metabolic stability in mouse liver microsomes assessed as parent compound remaining incubated for 60 mins in presence of NADPH; type: ADME, Microsome; settings: read-out: Stabilty
[7] = Metabolic stability in rat liver microsomes assessed as parent compound remaining incubated for 60 mins in presence of NADPH; type: ADME, Microsome; settings: read-out: Stabilty
[8] = Metabolic stability in human liver microsomes assessed as parent compound remaining incubated for 60 mins in presence of NADPH; type: ADME, Microsome; settings: read-out: Stabilty
[9] = Tmax in rat at 5 mg/kg, ig administered as single dose measured upto 24 hrs by LC-MS/MS analysis; type: ADME, organism-based; settings: in vivo, po
[10] = Cmax in rat at 5 mg/kg, ig administered as single dose measured upto 24 hrs by LC-MS/MS analysis; type: ADME, organism-based; set-up: route intragastric, dose 5 mg/kg, time <=24; settings: in vivo, po
[11] = AUC (0 to t) in rat at 5 mg/kg, ig administered as single dose measured upto 24 hrs by LC-MS/MS analysis; type: ADME, organism-based; set-up: route intragastric, dose 5 mg/kg, time <=24; settings: in vivo, po
[12] = AUC (0 to infinity) in rat at 5 mg/kg, ig administered as single dose measured upto 24 hrs by LC-MS/MS analysis; type: ADME, organism-based; set-up: route intragastric, dose 5 mg/kg, time <=24; settings: in vivo, po
[13] = Half life in rat at 5 mg/kg, ig administered as single dose measured upto 24 hrs by LC-MS/MS analysis; type: ADME, organism-based; settings: in vivo, po
[14] = MRT (0 to t) in rat at 5 mg/kg, ig administered as single dose measured upto 24 hrs by LC-MS/MS analysis; type: ADME, organism-based; settings: in vivo, po
[15] = Tmax in mouse at 10 mg/kg, ig administered as single dose measured upto 24 hrs by LC-MS/MS analysis; type: ADME, organism-based; settings: in vivo, po
[16] = Cmax in mouse at 10 mg/kg, ig administered as single dose v measured upto 24 hrs by LC-MS/MS analysis; type: ADME, organism-based; set-up: route intragastric, dose 10 mg/kg, time <=24; settings: in vivo, po
[17] = AUC (0 to t) in mouse at 10 mg/kg, ig administered as single dose measured upto 24 hrs by LC-MS/MS analysis; type: ADME, organism-based; set-up: route intragastric, dose 10 mg/kg, time <=24; settings: in vivo, po
[18] = AUC (0 to infinity) in mouse at 10 mg/kg, ig administered as single dose measured upto 24 hrs by LC-MS/MS analysis; type: ADME, organism-based; set-up: route intragastric, dose 10 mg/kg, time <=24; settings: in vivo, po
[19] = Half life in mouse at 10 mg/kg, ig administered as single dose measured upto 24 hrs by LC-MS/MS analysis; type: ADME, organism-based; settings: in vivo, po
[20] = MRT (0 to t) in mouse at 10 mg/kg, ig administered as single dose measured upto 24 hrs by LC-MS/MS analysis; type: ADME, organism-based; settings: in vivo, po

Sequence of Apoptosis regulator Bcl-2 (P10415 whole entry): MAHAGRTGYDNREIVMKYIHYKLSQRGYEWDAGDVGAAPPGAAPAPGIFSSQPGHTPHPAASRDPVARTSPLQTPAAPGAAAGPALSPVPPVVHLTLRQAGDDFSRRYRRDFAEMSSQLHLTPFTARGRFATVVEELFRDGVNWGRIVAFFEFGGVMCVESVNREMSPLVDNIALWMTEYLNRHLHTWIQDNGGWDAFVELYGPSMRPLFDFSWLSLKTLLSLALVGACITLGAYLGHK

| SMILES | IC50 [1] [nM] | IC50 [2] [nM] | IC50 [3] [nM] | other results |
| --- | --- | --- | --- | --- |
| CN(C)CCCNc1ccc(S(=O)(=O)NC(=O)c2ccc(N3CCN(CC4=C(c5ccc(C(F)(F)F)cc5)CC(C)(C)CC4)CC3)cc2Oc2cnc3[nH]ccc3c2)cc1[N+](=O)[O-] | 0.89 | 29 | 3.9 | – |
| CC1(C)CCC(CN2CCN(c3ccc(C(=O)NS(=O)(=O)c4ccc(OC5CCOCC5)c([N+](=O)[O-])c4)c(Oc4cnc5[nH]ccc5c4)c3)CC2)=C(c2ccc(C(F)(F)F)cc2)C1 | 8.4 | > 2000 | 375 | – |
| CC(Oc1ccc(S(=O)(=O)NC(=O)c2ccc(N3CCN(CC4=C(c5ccc(C(F)(F)F)cc5)CC(C)(C)CC4)CC3)cc2Oc2cnc3[nH]ccc3c2)cc1[N+](=O)[O-])C1CCOCC1 (stereo unspecified) | 9.2 | 618 | 269 | – |
| CC1(C)CCC(CN2CCN(c3ccc(C(=O)NS(=O)(=O)c4ccc(NCC5CCOC5)c([N+](=O)[O-])c4)c(Oc4cnc5[nH]ccc5c4)c3)CC2)=C(c2ccc(C(F)(F)F)cc2)C1 (stereo unspecified) | 4.7 | 897 | 24.2 | – |
| CC1(C)CCC(CN2CCN(c3ccc(C(=O)NS(=O)(=O)c4ccc(OCC5CCOC5)c([N+](=O)[O-])c4)c(Oc4cnc5[nH]ccc5c4)c3)CC2)=C(c2ccc(C(F)(F)F)cc2)C1 (stereo unspecified) | 4.4 | 1700 | 47 | – |
| CN1CCC(COc2ccc(S(=O)(=O)NC(=O)c3ccc(N4CCN(CC5=C(c6ccc(C(F)(F)F)cc6)CC(C)(C)CC5)CC4)cc3Oc3cnc4[nH]ccc4c3)cc2[N+](=O)[O-])C1 (stereo unspecified) | 0.75 | 16.8 | 10 | – |
| CC1(C)CCC(CN2CCN(c3ccc(C(=O)NS(=O)(=O)c4ccc(OCC5CCSCC5)c([N+](=O)[O-])c4)c(Oc4cnc5[nH]ccc5c4)c3)CC2)=C(c2ccc(C(F)(F)F)cc2)C1 | 1.65 | 500 | 15 | – |
| CC1(C)CCC(CN2CCN(c3ccc(C(=O)NS(=O)(=O)c4ccc(NCC5CCOCC5)c([N+](=O)[O-])c4)c(Oc4cnc5[nH]ccc5c4)c3)CC2)=C(c2ccccc2C(F)(F)F)C1 | 1.7 | 200 | 18 | – |
| CC1(C)CCC(CN2CCN(c3ccc(C(=O)NS(=O)(=O)c4ccc(NCC5CCOCC5)c([N+](=O)[O-])c4)c(Oc4cnc5[nH]ccc5c4)c3)CC2)=C(c2ccc(C(F)(F)F)c(Cl)c2)C1 | – | > 2000 | 81 | – |
| COc1ccc(C2=C(CN3CCN(c4ccc(C(=O)NS(=O)(=O)c5ccc(NCC6CCOCC6)c([N+](=O)[O-])c5)c(Oc5cnc6[nH]ccc6c5)c4)CC3)CCC(C)(C)C2)cc1 | 3.8 | 813 | 12 | – |
| CCN(CC)CCCNc1ccc(S(=O)(=O)NC(=O)c2ccc(N3CCN(CC4=C(c5ccc(C(F)(F)F)cc5)CC(C)(C)CC4)CC3)cc2Oc2cnc3[nH]ccc3c2)cc1[N+](=O)[O-] | 0.3 | 25 | 3 | – |
| CC(C)C(=O)N1CCC(CNc2ccc(S(=O)(=O)NC(=O)c3ccc(N4CCN(CC5=C(c6ccc(C(F)(F)F)cc6)CC(C)(C)CC5)CC4)cc3Oc3cnc4[nH]ccc4c3)cc2[N+](=O)[O-])CC1 | 2.4 | 453 | 5.3 | – |
| CC1(C)CCC(CN2CCN(c3ccc(C(=O)NS(=O)(=O)c4ccc(NCC5CCOCC5)c([N+](=O)[O-])c4)c(Oc4cnc5[nH]ccc5c4)c3)CC2)=C(c2ccc(Cl)cc2)C1 [VENETOCLAX] | – | – | 1.8 | Activity [4]: inactive; Activity [5]: Toxic; remaining at 1 h [6]: 58.8%; remaining at 1 h [7]: 46.3%; remaining at 1 h [8]: 54.9%; Tmax [9]: 2.67 h; Cmax [10]: 355 ng/mL; AUC(0-t) at 24 h [11]: 1380 ng·h/mL; AUC(0-inf) [12]: 1470 ng·h/mL; half-life [13]: 114 min; MRT last at 24 h [14]: 3.55 h; Tmax [15]: 1.67 h; Cmax [16]: 1310 ng/mL; AUC(0-t) at 24 h [17]: 7760 ng·h/mL; AUC(0-inf) [18]: 8100 ng·h/mL; half-life [19]: 167 min; MRT last at 24 h [20]: 4.71 h |
| CN1CCC(CNc2ccc(S(=O)(=O)NC(=O)c3ccc(N4CCN(CC5=C(c6ccc(C(F)(F)F)cc6)CC(C)(C)CC5)CC4)cc3Oc3cnc4[nH]ccc4c3)cc2[N+](=O)[O-])C1 (stereo unspecified) | 2.4 | 35.7 | 8.3 | – |
| CC1(C)CCC(CN2CCN(c3ccc(C(=O)NS(=O)(=O)c4ccc(NCC5CCOCC5)c([N+](=O)[O-])c4)c(Oc4cnc5[nH]ccc5c4)c3)CC2)=C(c2ccc(C(F)(F)F)cc2)C1 | 1.5 | 788 | 6.2 | – |
| CCN1CCC(COc2ccc(S(=O)(=O)NC(=O)c3ccc(N4CCN(CC5=C(c6ccc(C(F)(F)F)cc6)CC(C)(C)CC5)CC4)cc3Oc3cnc4[nH]ccc4c3)cc2[N+](=O)[O-])CC1 | 0.5 | 34.6 | 4.9 | – |
| CC1(C)CCC(CN2CCN(c3ccc(C(=O)NS(=O)(=O)c4ccc(OCC5CCOCC5)c([N+](=O)[O-])c4)c(Oc4cnc5[nH]ccc5c4)c3)CC2)=C(c2ccc(C(F)(F)F)cc2)C1 | 1 | 862 | 5.9 | Activity [4]: inactive; Activity [5]: Non-Toxic; remaining at 1 h [6]: 76.6%; remaining at 1 h [7]: 74.8%; remaining at 1 h [8]: 75.8%; Tmax [9]: 2.67 h; Cmax [10]: 438 ng/mL; AUC(0-t) at 24 h [11]: 2620 ng·h/mL; AUC(0-inf) [12]: 3130 ng·h/mL; half-life [13]: 270 min; MRT last at 24 h [14]: 5.18 h; Tmax [15]: 4 h; Cmax [16]: 920 ng/mL; AUC(0-t) at 24 h [17]: 6960 ng·h/mL; AUC(0-inf) [18]: 7000 ng·h/mL; half-life [19]: 179 min; MRT last at 24 h [20]: 5.7 h |
| CC1(C)CCC(CN2CCN(c3ccc(C(=O)NS(=O)(=O)c4ccc(NC5CCOC5)c([N+](=O)[O-])c4)c(Oc4cnc5[nH]ccc5c4)c3)CC2)=C(c2ccc(C(F)(F)F)cc2)C1 (stereo unspecified) | 1.9 | 837 | 32 | – |
| CC1(C)CCC(CN2CCN(c3ccc(C(=O)NS(=O)(=O)c4ccc(NCC5CCOCC5)c([N+](=O)[O-])c4)c(Oc4cnc5[nH]ccc5c4)c3)CC2)=C(c2cccc(C(F)(F)F)c2)C1 | – | – | 63 | – |
| CC1(C)CCC(CN2CCN(c3ccc(C(=O)NS(=O)(=O)c4ccc(NCC5CCOCC5)c([N+](=O)[O-])c4)c(Oc4cnc5[nH]ccc5c4)c3)CC2)=C(c2ccc(Cl)cc2C(F)(F)F)C1 | – | > 2000 | 74 | – |
| CC1(C)CCC(CN2CCN(c3ccc(C(=O)NS(=O)(=O)c4ccc(OCC5CCCOC5)c([N+](=O)[O-])c4)c(Oc4cnc5[nH]ccc5c4)c3)CC2)=C(c2ccc(C(F)(F)F)cc2)C1 (stereo unspecified) | 3 | 761 | 12 | – |

From ChEMBL document CHEMBL4825763, “Discovery of potent and selective Bcl-2 inhibitors with acyl sulfonamide skeleton” (Bioorg Med Chem, 2021)
